This note sets out measurements from patent US20120178682A1, “GB1 Peptidic Compounds and Methods for Making and Using the Same” (priority 2010, published 2012).

Bridge positions count the residues as written; N and C are the ends. Square brackets hold non-standard residues; d marks the D form. Ends that are not written are not given here.

In general, Kd refers to a measure of binding affinity in units of concentration. A higher Kd goes with weaker binding.

Data set [1] has as its system D-VEGF. As to the kind of experiment: Competition assay (phage ELISA) with VEGF binding peptides v114 and v128a on D-VEGF. The following applies: 100 μM peptide; anti-M13-HRP detection. The method, then:
(§1) To test whether the D-VEGF and L-VEGF binders have the potential to block VEGF-VEGFR1 interaction, a competition assay was performed using VEGF binding peptides v114 and v128a described by Fairbrother et al. (“Novel peptides selected to bind vascular endothelial growth factor target the receptor-binding site,” Biochemistry, 1998, 37, 17754-64). These peptides block the binding of VEGF to VEGFR1 and inhibit angiogenesis.
(§2) The peptides v114 ([…]-NH2; SEQ ID NO:296) and v128a ([…]-NH2; SEQ ID NO:297) were prepared in both D- and L-forms (CSBio, Inc.). The following protocol was used in the competitive binding assays: • 1. 5 wells of NUNC 96 well maxisorb plate were coated with D-VEGF (5 μg/ml in PBS) for testing clone E01. Similarly 5 wells were coated with L-VEGF (5 μg/ml in PBS) for each of E01 and B03. The plate was incubated at room temperature with gentle shaking for 2 hours; • 2. The plates were blocked with PBS+0.2% BSA (5 wells+1 extra well for control) for 1 hr at room temperature with gentle shaking; • 3. In the meantime, peptides were diluted in PBT buffer to a concentration of 150 μM; • 4. The plate was washed four times with PT buffer; • 5. 66 μl of each diluted peptide was added to 4 different wells coated with L or D-VEGF (depending on the clone tested). 66 μl of PBT was added to control wells (1 VEGF coated well+1 control well). Incubate for 30 min at room temperature with shaking; • 6. Add 33 μl of fresh phage supernatant from overnight culture to each of the six wells containing peptide solution. Incubate for 15 min at room temperature with shaking. • 7. Wash plate 6 times with PT buffer; • 8. Add 66 μl of anti-M13-HRP antibody (1:3000 dilution in PBT) to each well and incubate for 30 min at room temperature with shaking; • 9. Wash plate 4 times with PT buffer. Develop and read plates at 450 nm.
Phage binding to L and D-VEGF was tested in the presence and absence of 100 μM of each peptide (e.g., at 100 times affinity to saturate VEGF) using anti-M13-HRP to detect the bound phage.
(In general: In an ELISA, binding on a coated surface is turned into a signal by an enzyme label.)

Data set [2] addresses D-VEGF. As to the kind of experiment: SPR affinity measurements of GB1 peptidic compounds on immobilized D-VEGF. The data set is classed as binding. The following applies: target D-VEGF. As to the method:
VEGF binding compounds were expressed. Binding affinities were measured using the […] SPR system. SPR analysis was performed on a ProteOn XPR36 Protein Interaction Array System (BioRad). Chemically synthesized L-VEGF, D-VEGF and VEGF165 (Peprotech) were immobilized in 50 mM Sodium Acetate (pH 5.5) to a non-dilute EDAC/sulfo-NHS activated GLC surface on separate channels using a flow rate of […] for 5 minutes in the vertical direction. Immobilization levels were monitored to ensure immobilization of approximately 500 response units of each protein. The domains were then stabilized with PBS for 30 seconds and 0.85% H3PO4 for 18 seconds each at […]. GB1 variants were diluted in PBS plus 0.05% Tween 20 at a starting concentration of 200 nM. The binders were further diluted with PBST 2-fold in series to produce 5 concentrations of variants. A PBST blank was also included. GB1 variant injection parameters were: […], 60 seconds contact time, and 600 seconds dissociation time, in the horizontal direction. VEGF proteins were regenerated with an injection of 0.85% H3PO4 at a flow rate of […] followed by a PBST wash of 30 seconds at […] flow rate.

Data set [3] in a line: Melting temperature (Tm) by circular dichroism (CD). The data set is classed as physicochemical. The following applies: chemically synthesized compound; CD spectroscopy. The source says:
4.3 Determination of Melting Temperature (Tm) by Circular Dichroism (CD)
For orientation: Circular dichroism is the unequal absorption of left and right circularly polarised light.

For data set [4], the system named is D-VEGF. The experiment in a line: Phage ELISA after overnight incubation with GuHCl or urea. The data set is classed as binding. The following applies: various concentrations of urea or GuHCl; phage incubated overnight. The method, then:
During screening for specific binding to target, the presence of a chaotropic agent/denaturant can help select clones with improved stability and affinity. Phage were incubated overnight in the presence of various concentrations of GuHCl and urea and assayed using an ELISA method. […] Various concentrations GuHCl were added to selection wells prior to elution with 100 mM HCl. The selected clones were identified by competitive ELISA and analyzed for IC50 using similar protocols to those described above.

In a further data set the target is T1, L-VEGF (Homo sapiens, UniProt P15692).
T1 construct: Synthetic L-VEGF-A (8-109) was folded under the following conditions; made in house; host or cells: total chemical synthesis (SPPS plus native chemical ligation), no expression host
T1 sequence (P15692 214-315): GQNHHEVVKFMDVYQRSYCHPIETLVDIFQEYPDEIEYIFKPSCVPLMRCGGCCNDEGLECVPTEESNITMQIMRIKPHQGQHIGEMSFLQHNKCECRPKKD
The experiment in a line: Competition assay (phage ELISA) with VEGF binding peptides v114 and v128a on L-VEGF. The note with it: 100 μM peptide; anti-M13-HRP detection. As to the method:
as §1
as §2, with “Incubate for 30 min at room temperature with shaking; • 6. Add 33 μl of fresh phage supernatant from overnight culture to each of the six wells containing peptide solution. Incubate for 15 min at room temperature with shaking. • 7. Wash plate 6 times with PT buffer; • 8. Add 66 μl of anti-M13-HRP antibody (1:3000 dilution in PBT) to each well and incubate for 30 min at room temperature with shaking; • 9. Wash plate 4 times with PT buffer.” left out, “nm. […]” for “nm.”

The mark [5] stands for this setting: Table 2, GB1-E01 double mutants.

“E01: pre-affinity matured parent D-VEGF binding GB1 clone, SEQ ID NO:79 (TYKLILNGKTLKGETTTEAVDVYDAFDVFFVYAASNFSDFDDWTYDDATKTFTVTE) [Clone E01]”: in the data set on D-VEGF [1], the “phage binding to D-VEGF in the presence of D-v114” value is “completely blocked”; the “phage binding to D-VEGF in the presence of D-v128a” value is “partially blocked”; the “phage binding to D-VEGF in the presence of L-peptides (L-v114, L-v128a)” value is recorded as “do not inhibit”. At D-VEGF [2] (Table 1), this substance returned a dissociation constant Kd of 13.4 nM and a Koff of 0.00347 s⁻¹. In the data set with D-VEGF [2] (Table 1, E01 point mutants expressed in E. coli), this substance showed a Kon of 260000 M⁻¹ s⁻¹. Besides, on D-VEGF [2] (setting [5]), the Kd stood at 3.46 nM, the Koff amounted to 0.00117 s⁻¹ and the Kon came out at 338000 M⁻¹ s⁻¹.

On to “TYKLILNGKTLKGEFTLEAVDLFDAFDVFFVYAASNFSFFDDWTYDDATKTFTVTE ([dT][dY][dK][dL][dI][dL][dN]G[dK][dT][dL][dK]G[dE][dF][dT][dL][dE][dA][dV][dD][dL][dF][dD][dA][dF][dD][dV][dF][dF][dV][dY][dA][dA][dS][dN][dF][dS][dF][dF][dD][dD][dW][dT][dY][dD][dD][dA][dT][dK][dT][dF][dT][dV][dT][dE]; not fully specified) [RFX025]”, for which the “melting temperature (Tm)” value in data set [3] amounted to 66.6 °C. Moreover, the “binding to D-VEGF in presence of denaturant” value with D-VEGF [4] is listed as “bind specifically”.

Consider “TYKLILNGKTLKGETTTEAVDFYYAFSVFFSYASSNSSDYVSWTYDDATKTFTVTE [Clone B03]”, for which, in the data set with L-VEGF, the “phage binding to L-VEGF in the presence of D-peptides (D-v114, D-v128a)” value is on record as “do not inhibit”.

As for “TYKMILNGKTLKSECTTEAVDLFDAFDVLFVCAASNFSFIDDWTYDDATKTFTVTE ([dT][dY][dK][dM][dI][dL][dN]G[dK][dT][dL][dK][dS][dE][dC][dT][dT][dE][dA][dV][dD][dL][dF][dD][dA][dF][dD][dV][dL][dF][dV][dC][dA][dA][dS][dN][dF][dS][dF][dI][dD][dD][dW][dT][dY][dD][dD][dA][dT][dK][dT][dF][dT][dV][dT][dE]; disulfide 15-32 (inferred); not fully specified) [RFX002]”, in data set [3], the “melting temperature (Tm)” value amounted to 66.9 °C. In the data set on D-VEGF [4], the “binding to D-VEGF in presence of denaturant” value was “bind specifically”.
